Source: patent US20230123334A1, “AMINO LIPID COMPOUND, PREPARATION METHOD THEREFOR, AND APPLICATION THEREOF” (SHENZHEN SHENXIN BIOTECHNOLOGY CO., LTD., priority 2020, published 2023)

System: HEK293 cells
Assay: Preliminary screening as DNA vectors, GFP transfection of HEK293 cells
Assay type: cell-based
Details: amino lipid/DOPE liposome with 75 ng plasmid DNA (psin-EGFP-IRES-Puro); number of GFP-expressing cells divided by total nuclei (Hoechst)
Protocol: Cell line: HEK293 cells (ATCC CRL-1573™)
Medium: DMEM supplemented with 10% fetal bovine serum (Invitrogen)
Mode of screening: cell transfection on 96-well plates
Detection (readout): percentage of the number of GFP fluorescent cells relative to the total number of cells (the total number of cells was measured using nucleus dye Hoechst—see FIG. 2). Lipofectamine2000 (Invitrogen) was used as positive control, according to the manufacturer's instructions.
Method: an 8-channel pipette was used for sample addition. The contents shown were for a single well of a 96-well flat plate.
1. The compound (0.01 mmol) prepared in Example 1 was dissolved in 1 mL of anhydrous ethanol. After ultrasonically dissolved, 10 μL of the resultant amino lipid solution in ethanol was taken and mixed with 5 μL of DOPE solution in ethanol (0.01 m), and then to the obtained mixture was added 35 μL of 0.2M sodium acetate buffer (pH 5.6), and 50 μL of liposome solution was prepared by vortex at a constant rotating speed for 30 s. 4 μL was taken from the 50 μL liposome solution and added to 46 μL of 0.02M sodium acetate buffer (pH 5.6), and the final liposome solution was formed by vortex at a constant rotating speed for 30 s. 5 μL was taken from the final liposome solution and mixed with 75 ng plasmid DNA (psin-EGFP-IRES-Puro, Clontech) dissolved in 5 μL of 0.02 M sodium acetate buffer, and was allowed to stay at room temperature for 30 min to form a lipid/DNA transfection complex.
2. 10 μL of the lipid/DNA transfection complex was incubated at room temperature for 30 min, followed by addition of 90 μL of fresh resuspended cells (3-5×10^4 cells) and mixing with a pipette. 100 μL of cells+lipid/DNA complex was transferred to separate wells of a 96-well culture plate immediately, and placed in an incubator containing 5% CO2 at 37° C.
3. Hoechst33258 (Invitrogen) was added at a final concentration of 0.2 μg/mL to the cells 20 to 24 hours after initial cell transfection, and cultured in darkness at 37° C. for 15 min. Afterwards, the cells were washed once with a PBS solution, and then added with medium for culture for 20 to 24 h.
4. The cells were placed in a high-throughput confocal microscope (Molecular Devices ImageXpress), and four visual fields of the image of the cells were captured for each well, and images at three laser wavelengths were captured for each sample: bright field images of cells (FIG. 2(a) and FIG. 2(b)), Hoechst-staining images showing total nuclei (FIG. 2(c) and FIG. 2(d)) and GFP images showing success in transfection with the plasmid DNA and the expression of GFP (FIG. 2(e) and FIG. 2(f)). MetaXpress software was used to separately count the cells in the Hoechst-staining images and GFP images, and then the number of cells expressing GFP was divided by the total number of nuclei to give the absolute cell transfection efficiency. The absolute transfection efficiency was calculated as follows: […]

| SMILES | Absolute DNA transfection efficiency in HEK293 cells |
| --- | --- |
| CCCCCCCCCCCCCNc1nc(NCCN2CCN(C)CC2)nc(SCCCCCCCC)n1 [S8N13 D5] | 28.3% |
| CCCCCCCCCCCCCCCCCCSc1nc(NCCCCCCC)nc(NCCN2CCCCC2)n1 [S18N7 D4] | 3.5% |
| CCCCCCCCCCCCCCCNc1nc(NCCCN2CCOCC2)nc(SCCCCCCCC)n1 [S8N15 D8] | 7.7% |
| CCCCCCCCCCCCCCCCNc1nc(NCCCN(C)C)nc(SCCCCCCCCC)n1 [S9N16 D6] | 29.7% |
| CCCCCCCCCCSc1nc(NCCCCCCC)nc(NCCCN2CCOCC2)n1 [S10N7 D8] | 2.6% |
| CCCCCCCCCCCCCCSc1nc(NCCN(CC)CC)nc(SCCCCCCC)n1 [S7S14 D7] | 4.0% |
| CCCCCCCCCCCCCCCNc1nc(NCCN2CCCC2)nc(SCCCCCCCCCCCCCC)n1 [S14N15 D3] | 1.0% |
| CCCCCCCCCCCCCNc1nc(NCCN2CCCC2)nc(SCCCCCCCCCCC)n1 [S11N13 D3] | 17.5% |
| CCCCCCCCCCCCCCCCNc1nc(NCCCN(C)C)nc(SCCCCCCCCCCC)n1 [S11N16 D6] | 5.7% |
| CCCCCCCCCNc1nc(NCCN(CC)CC)nc(SCCCCCCCC)n1 [S8N9 D7] | 26.0% |
| CCCCCCCCCCCCCCCCCCSc1nc(NCCN2CCN(C)CC2)nc(N(CCCCCCCCCCCC)CCCCCCCCCCCC)n1 [S18^2N12 D5] | 0.0% |
| CCCCCCCCCCCCCCCCCCNc1nc(NCCCN(C)C)nc(SCCCCCCCCC)n1 [S9N18 D6] | 47.5% |
| CCCCCCCCCCCCCCCCNc1nc(NCCN2CCCC2)nc(SCCCCCCCCCCCC)n1 [S12N16 D3] | 2.6% |
| CCCCCCCCCCCNc1nc(NCC2CCN(C)CC2)nc(SCCCCCCCCC)n1 [S9N11 D10] | 42.5% |
| CCCCCCCCCCCCNc1nc(NCCN2CCCCC2)nc(SCCCCCCCCC)n1 [S9N12 D4] | 8.0% |
| CCCCCCCCCCCCNc1nc(NCCN2CCCCC2)nc(SCCCCCCCCCC)n1 [S10N12 D4] | 4.7% |
| CCCCCCCCCCCCCCCCCCSc1nc(NCCCCCCCCCCCCC)nc(NCCCN(C)C)n1 [S18N13 D6] | 2.6% |
| CCCCCCCCCCCSc1nc(NCCN(CC)CC)nc(SCCCCCC)n1 [S6S11 D7] | 10.1% |
| CCCCCCCCCCCCCNc1nc(NCCCN(C)C)nc(SCCCCCCCCCCCC)n1 [S12N13 D6] | 7.0% |
| CCCCCCCCCCCCCNc1nc(NCCN2CCCC2)nc(SCCCCCCCCCCCC)n1 [S12N13 D3] | 3.6% |

| SMILES | Absolute DNA transfection efficiency in HEK293 cells |
| --- | --- |
| CCCCCCCCCCCCCCCSc1nc(NCCCCCC)nc(NCCN2CCCCC2)n1 [S15N6 D4] | 21.6% |
| CCCCCCCCCCCSc1nc(NCCCCCCC)nc(NCCN2CCOCC2)n1 [S11N7 D2] | 11.7% |
| CCCCCCCCCCCSc1nc(NCCCCCCCCC)nc(NCCN2CCCC2)n1 [S11N9 D3] | 23.1% |
| CCCCCCCCCCCSc1nc(NCCCCCCC)nc(NCCCN(C)C)n1 [S11N7 D6] | 34.0% |
| CCCCCCSc1nc(NCCN(CC)CC)nc(SCCCCCC)n1 [S6S6 D7] | 23.0% |
| CCCCCCCCCCCCSc1nc(NCCCCCCCCCCC)nc(NCCCN2CCOCC2)n1 [S12N11 D8] | 0.0% |
| CCCCCCCCCCCCCCCCCCNc1nc(NCC2CCN(C)CC2)nc(SCCCCCCC)n1 [S7N18 D10] | 16.3% |
| CCCCCCCCCCCCCCCCCCSc1nc(NCCCCCCCC)nc(NCCN2CCOCC2)n1 [S18N8 D2] | 3.8% |
| CCCCCCCCCCCCCCCCCCNc1nc(NCCN2CCN(C)CC2)nc(SCCCCCCCCCCCC)n1 [S12N18 D5] | 0.6% |
| CCCCCCCCCSc1nc(NCCCCCCCC)nc(NCC2CCN(C)CC2)n1 [S9N8 D10] | 17.2% |
| CCCCCCCCCCCCCCCSc1nc(NCCCN2CCOCC2)nc(N(CCCCCCCCCCCC)CCCCCCCCCCCC)n1 [S15^2N12 D8] | 0.0% |
| CCCCCCCCCCCCCCCCNc1nc(NCCN2CCN(C)CC2)nc(SCCCCCC)n1 [S6N16 D5] | 19.6% |
| CCCCCCNc1nc(NCCCN2CCOCC2)nc(SCCCCCC)n1 [S6N6 D8] | 0.0% |
| CCCCCCCCNc1nc(NCCN(C)C)nc(SCCCCCC)n1 [S6N8 D1] | 0.2% |
| CCCCCCCCCCCCCCCCCCSc1nc(NCCCCCC)nc(NCC2CCN(C)CC2)n1 [S18N6 D10] | 8.9% |
| CCCCCCCCCCCCCCCCCCNc1nc(NCCN(CC)CC)nc(SCCCCCC)n1 [S6N18 D7] | 5.2% |
| CCCCCCCCCNc1nc(NCCN(C)C)nc(SCCCCCCC)n1 [S7N9 D1] | 28.8% |
| CCCCCCCCCCCNc1nc(NCCN(CC)CC)nc(SCCCCCCCC)n1 [S8N11 D7] | 24.6% |
| CCCCCCCCCCCCCCCCSc1nc(NCCCCCC)nc(NCCCN2CCOCC2)n1 [S16N6 D8] | 11.6% |
| CCCCCCCCNc1nc(NCCCN(C)C)nc(SCCCCCCCC)n1 [S8N8 D6] | 8.7% |

| SMILES | Absolute DNA transfection efficiency in HEK293 cells |
| --- | --- |
| CCCCCCCCCCSc1nc(NCCCCCCCC)nc(NCCN2CCOCC2)n1 [S10N8 D2] | 3.7% |
| CCCCCCCCCCCCCCCNc1nc(NCCCN2CCOCC2)nc(SCCCCCCC)n1 [S7N15 D8] | 7.9% |
| CCCCCCCCCCCCCCCCSc1nc(NCCCCCCC)nc(NCCCN2CCOCC2)n1 [S16N7 D8] | 12.0% |
| CCCCCCCCCCSc1nc(NCCN2CCCC2)nc(SCCCCCCCC)n1 [S8S10 D3] | 8.9% |
| CCCCCCCSc1nc(NCCCN(C)C)nc(SCCCCCCC)n1 [S7S7 D6] | 10.3% |
| CCCCCCCSc1nc(NCCCN2CCOCC2)nc(SCCCCCC)n1 [S6S7 D8] | 0.0% |
| CCCCCCCCCCCCCCCCCCNc1nc(NCCN2CCN(C)CC2)nc(SCCCCCCCCCCCCCC)n1 [S14N18 D5] | 0.6% |
| CCCCCCNc1nc(NCCCN2CCN(C)CC2)nc(SCCCCCC)n1 [S6N6 D9] | 0.0% |
| CCCCCCCCCCCCCCCCSc1nc(NCCN(C)C)nc(SCCCCCC)n1 [S6S16 D1] | 8.4% |
| CCCCCCCCCCCCCCCCCCSc1nc(NCCCCCCCCCCCC)nc(NCCN2CCOCC2)n1 [S18N12 D2] | 0.7% |
| CCCCCCCCCCCCCCCSc1nc(NCCCCCCCCC)nc(NCCN2CCOCC2)n1 [S15N9 D2] | 9.7% |
| CCCCCCCCCCCCCCCCCCNc1nc(NCCN2CCCC2)nc(SCCCCCC)n1 [S6N18 D3] | 21.9% |
| CCCCCCCCCCCCN(CCCCCCCCCCCC)c1nc(NCCN(C)C)nc(SCCCCCCCC)n1 [S8^2N12 D1] | 0.0% |
| CCCCCCCNc1nc(NCCN2CCOCC2)nc(SCCCCCCC)n1 [S7N7 D2] | 2.5% |
| CCCCCCCCCCCCCCCCCCNc1nc(NCCCN2CCN(C)CC2)nc(SCCCCCCCCCCC)n1 [S11N18 D9] | 9.3% |
| CCCCCCCCCCCCCCCCNc1nc(NCCCN2CCOCC2)nc(SCCCCCCCCCCCCCCC)n1 [S15N16 D8] | 0.0% |
| CCCCCCCCCNc1nc(NCCN2CCOCC2)nc(SCCCCCCCC)n1 [S8N9 D2] | 10.7% |
| CCCCCCCCCCCCCCCCNc1nc(NCC2CCN(C)CC2)nc(SCCCCCCC)n1 [S7N16 D10] | 15.8% |
| CCCCCCCCCCCCCCCSc1nc(NCCCCCCCCCCC)nc(NCCN2CCOCC2)n1 [S15N11 D2] | 19.3% |
| CCCCCCCCCCCCCCCCCCSc1nc(NCCCCCCCCCCCCC)nc(NCCCN2CCOCC2)n1 [S18N13 D8] | 0.0% |
